Measurements published in patent EP0193189A1, “Novel compound, its production and insecticidal and acaricidal composition containing it as an active ingredient” (SUMITOMO CHEMICAL COMPANY, LIMITED, priority 1985, dated 1986).
≈ marks a conversion by molar mass, not a printed value. Read-outs that look alike come from different tables or passages of the source.

Tests used:
[1] = test system: common mosquito (Culex pipiens pallens); experiment: Test Example 1: common mosquito larvae in diluted emulsifiable concentrate, mortality and emergence inhibition; assay type: in vivo; details: Culex pipiens; for mortality at 3.5 ppm: 24 h; for pest or weed control at 3.5 ppm: counted when all pupae of no treatment group had emerged, read-out: Inhibitory ratio of emergence
Protocol: The emulsifiable concentrates of the following present compounds obtained according to Formulation example 2 were each diluted with water so as to obtain respective aqueous solutions containing 3.5 ppm of said compounds, respectively. One hundred ml of thus diluted aqueous solutions were poured into respective polyethylene cups of 180 ml volume, and 20 of the last instar larvae of common mosquito (Culex pipiens pallens) were liberated thereto. After one day, the dead or alive of the larvae were examined.
Thereafter, the feed was added to respective cups and the number of emerged pupae of the respective cups was counted when all the pupae of no treatment group had emerged to calculate the inhibitory ratios of the emergence.
The mortality and the inhibitory ratio of the emergence are shown according to the following three criteria: • mortality: A; 90% or more, • B; less than 90% to 10%, • C; less than 10%. • inhibitory: A; 90% or more, ratio of • emergence B; less than 90% to 80% • C; less than 80%.

[2] = test system: tobacco cutworms (Spodoptera litura); experiment: Test Example 2: tobacco cutworm larvae on treated artificial feed; assay type: in vivo; details: Spodoptera litura, 144 h
From the text: The emulsifiable concentrates of the following present compounds obtained according to Formulation example 2 were each diluted with water to obtain respective 667 times dilution aqueous solutions (corresponding to 150 ppm) containing said compounds, respectively. Two ml of thus diluted solutions were impregnated into the artificial feeds (13 g) for tobacco cutworms (Spodoptera litura) and thus prepared feeds were placed in polyethylene cups of 11 cm in diameter, respectively. Ten of the 4th instar larvae were liberated thereon.
Six days after, the dead and alive of the larvae were examined to calculate the mortality (two replications).

[3] = test system: resistant strain of green rice leafhopper (Nephotetix cincticeps); experiment: Test Example 3: rice seedling dip test, resistant green rice leafhopper; assay type: in vivo; details: Nephotettix cincticeps, 24 h, adults of resistant strain, after one day
Protocol: The emulsifiable concentrates of the following present compounds and control compounds obtained according to Formulation example 2 were each diluted with water to a prescribed concentration, and rice seedlings (about 12 cm in length) were dipped for 1 minute in the resulting aqueous dilute solutions. After air-drying, the seedlings were placed in test tube, and 10 adults of a resistant strain of green rice leafhopper (Nephotetix cincticeps) were liberated in the tube. After one day, the dead and alive of the adults were examined to obtain LC50 (50% lethal concentration)(two replications).

[4] = test system: brown rice planthopper (Nila^parvata luqens); experiment: Test Example 4: rice seedling dip test, brown rice planthopper; assay type: in vivo; details: 24 h, read-out: LC50 value (ppm)
Protocol: The emulsifiable concentrates of the-following present compounds and control compounds obtained according to Formulation example 2 were each diluted with water to a prescribed concentration, and the rice seedlings (about 12 cm in length) were dipped for 1 minute in the resulting aqueous dilute solutions. After air-drying, the seedlings were placed in a test tube, and 10 adults of brown rice planthopper (Nila^parvata luqens) were liberated in the tube. After one day, the dead and alive of the adults were examined to obtain LC50 value (50% lethal concentration)(two replications).

[5] = test system: rice stem borer (Chilo suppressalis); experiment: Test Example 5: rice stem borer larvae on treated artificial feed; assay type: in vivo; details: read-out: LC50 value (ppm)
From the text: The emulsifiable concentrates of the following present compounds and control compounds obtained according to Formulation example 2 were each diluted with water to a prescribed concentration, and one ml each of thus prepared solutions was impregnated into the artificial feeds for rice stem borer (Chilo suppressalis) which had been previously prepared in polyethylene cups of 5.5 cm in diameter, respectively. Ten of the larvae of the 10 days old were liberated thereon. The dead and alive larvae were examined to obtain LC50 value (50% lethal concentration) (two replications).

[6] = test system: brown rice planthoppers (Nila^parvata luqens); experiment: Test Example 7: spray on potted rice plants, brown rice planthopper, residual effect; assay type: in vivo; details: 20 h
Protocol: The emulsifiable concentrates of the following compounds and control compounds obtained according to Formulation example 2 were each diluted with water one thousand times (corresponding to 100 ppm) and each of thus prepared solutions was sprayed at the rate of 20 ml/2 pots to the rice plant seedlings planted in Wagner pots having a surface area of one ten thousandth are. After air-drying, the treated plants were covered with the iron wire cages, and about 15 adults of brown rice planthoppers (Nila^parvata luqens) were liberated thereto. Further, about 15 adults thereof were also liberated thereto 4 days after the application to examine the residual effects. Twenty hours after each liberation, the dead and alive adults were examined to calculate the mortality.

[7] = test system: carmine spider mite (Tetranychus cinnabarinus); experiment: Test Example 8: carmine spider mite on potted kidney bean, degree of damage; assay type: in vivo; set-up: key: -: No damage is observed.; +: Slight damage is observed.; ++: The same damage as in the untreated plot is observed; details: 500 ppm spray 10 ml/pot plus 2 ml soil treatment; after 8 days
Protocol: The female adults of carmine spider mite (Tetranychus cinnabarinus) were put at a rate of 10 adults/leaf on the leaves of potted kidney bean (at the primordial leaf stage) which had elapsed 7 days after sowing, and placed in a constant-temperature room kept at 25°C. After 6 days, the 200-fold aqueous dilute solutions (corresponding to 500 ppm), prepared from the emulsifiable concentrates of the following present compounds and control compounds prepared according to Formulation example 2, were each sprayed at a rate of 10 ml/pot on a turn table. At the same time, the soil in the pot was treated with 2 ml of each aqueous solution. After 8 days, the degree of damage of the plant by the mite was examined.
Criteria of the effect: • - : No damage is observed. • + : Slight damage is observed. • ++: The same damage as in the untreated plot is observed.

[8] = Test Example 9: fish toxicity test; assay type: in vivo, Cyprinida carpio; details: water; young carp; forty-eight hours; 25 ± 1°C; Probit method; read-out: LC50 value (ppm)
Protocol: Twenty liters of each of the aqueous solutions containing the prescribed concentrations of the present compounds and comparative control one, and 10 young carp were liberated thereto. Forty-eight hours after, the dead and alive carp were examined to obtain LC50 value, (50% lethal concentration) according to Probit method. All the tests were carried out in thermostatic aquaria whose temperatures were kept at 25 ± 1°C.
Tested fish: young Japanese carp (Cyprinida carpio) Average body length ± S.D.: 2.94 ± 0.19 cm. Average.body weight ± S.D.: 0.65 ± 0.13 g.

[9] = test system: houseflies (Musca domestica) of WHO strains; experiment: Test Example 6: housefly filter paper and sucrose bait test; assay type: in vivo; details: 0.7 ml on filter paper with sucrose bait, adult females, after 48 hours, read-out: LC50 value (ppm)
Protocol: On the bottom of a polyethylene cup of 5.5 cm- in diameter was placed a piece of filter paper of the same size as the bottom, and 0.7 ml of a test solution, prepared by diluting the emulsifiable concentrates of the following present compounds and control compounds prepared according to Formulation example 2 to a prescribed concentration with water, was added dropwise to the filter paper. Thirty milligrams of sucrose were uniformly placed on the filter paper as bait. Thereafter, 10 adult female houseflies (Musca domestica) of WHO strains were liberated in the cup, which was then covered with a lid. After 48 hours, the dead and alive were examined to obtain LC50 value (50% lethal concentration) (two replications).

[10] = read-out: LC50 value (ppm), rice seedlings dipped 1 minute
[11] = rice seedlings dipped 1 minute, adults, after one day
[12] = 1 ml solution in artificial feed, larvae 10 days old
[13] = 100 ppm spray, 20 ml/2 pots, residual effect, twenty hours after liberation, read-out: Mortality (%) liberated 4 days after application
[14] = 100 ppm spray, 20 ml/2 pots, twenty hours after liberation, read-out: Mortality (%) liberated just after air-drying

Question: What does the source list for `C#CC(C)(CCCc1cccc(Oc2ccccc2)c1)c1ccc(OCC)cc1` (stereo not shown) [(3), 3-(4-ethoxyphenyl)-3-methyl-6-(3-phenoxyphenyl)-1-hexyne]?
Answer: mortality at 3.5 ppm [1]: > 90%; pest or weed control at 3.5 ppm ([1]; 3.5 ppm): > 90%; mortality at 150 ppm [2]: 100%; LC50 [3, 10]: 18 µg/mL (≈ 46.8 µM); LC50 [4]: 34 µg/mL (≈ 88.4 µM); LC50 [5]: 3.6 µg/mL (≈ 9.36 µM); mortality at 100 ppm ([6]; read-out: Mortality (%) liberated 4 days after application): 95%; mortality at 100 ppm ([6]; read-out: Mortality (%) liberated just after air-drying): 100%; Degree of damage [7]: -; LC50 at 48 h [8]: > 10 µg/mL

Question: Which mortality at 3.5 ppm ([1]; 3.5 ppm, 20 last instar larvae, after one day, read-out: Mortality) does the source give for `C#CC(C)(CCCc1ccc(F)c(Oc2ccccc2)c1)c1ccc(OCC)cc1` (stereo not shown) [(4)] here?
Answer: Its mortality at 3.5 ppm is greater than 90%.

Question: What about the pest or weed control at 3.5 ppm ([1]; 3.5 ppm) of the same molecule?
Answer: Its pest or weed control at 3.5 ppm is greater than 90%.

Question: What about the mortality at 150 ppm ([2]; 150 ppm solution, 2 ml in 13 g artificial feed, 4th instar larvae, six days after, read-out: Mortality (%)) of the same molecule?
Answer: The mortality at 150 ppm was 100%.

Question: What about the LC50 ([3]; rice seedlings dipped 1 minute, read-out: LC50 value (ppm)) of the same molecule?
Answer: The LC50 was 10 µg/mL (≈ 24.8 µM).

Question: And the LC50 [4, 11]?
Answer: The LC50 was 24 µg/mL (≈ 59.6 µM).

Question: What about the LC50 [5, 12] of the same molecule?
Answer: Its LC50 is 1.9 µg/mL (≈ 4.72 µM).

Question: And the LC50 [9]?
Answer: Its LC50 is 18 µg/mL (≈ 44.7 µM).

Question: And the mortality at 100 ppm [6, 13]?
Answer: Its mortality at 100 ppm is 100%.

Question: What about the mortality at 100 ppm [6, 14] of the same molecule?
Answer: Its mortality at 100 ppm is 100%.

Question: And the LC50 at 48 h [8]?
Answer: Its LC50 at 48 h is greater than 10 µg/mL.

Question: What does the source list for `CCOc1ccc(C(C)(C)COCc2cccc(Oc3ccccc3)c2)cc1` [(B), reference compound]?
Answer: LC50 [4, 11]: 110 µg/mL (≈ 292 µM); LC50 [5, 12]: 7.4 µg/mL (≈ 19.7 µM); LC50 [9]: 28 µg/mL (≈ 74.4 µM); mortality at 100 ppm [6, 13]: 65%; mortality at 100 ppm [6, 14]: 10%; Degree of damage [7]: - ~ ++

Question: For `CCOC(=O)CC(SP(=S)(OC)OC)C(=O)OCC` (stereo not shown) [(D), Malathion, reference compound], which LC50 [3, 10] is on record?
Answer: The LC50 was roughly 500 µg/mL (≈ 1510 µM).

Question: And the LC50 at 48 h [8]?
Answer: Its LC50 at 48 h is 4.5 µg/mL (≈ 13.6 µM).
